Experimental data reported in patent publication US20110106000A1, “Nitric Oxide Compositions and Devices and Methods for Cosmesis” (MICROPHARMA LIMITED, priority 2008, published 2011).

What was measured:
porcine liver esterase = assay: Enzymatic generation of gNO with porcine liver esterase, sodium nitrite and ester substrates; format: biochemical; settings: for substrate ranking for porcine liver esterase (gNO generation): FIG. 31, measured hourly; for gNO production: porcine liver esterase, sodium nitrite
Procedure: (§1) Enzymatic Generation of gNO: A 200 μl reaction solution was prepared by combining water, an acetate ester (ethyl acetate, isobutyl acetate, octyl acetate) or a triglyceride such as triacetin (glyceryl triacetate), sodium nitrite, and an esterase (porcine liver esterase, rhyzopus oryzae esterase) or a lipase (porcine pancreatic lipase, candida rugosa lipase). The solution was then added to a 2 ml vial, which was closed tightly with a septum cap. The head gas was sampled every hour from the reaction containing vials in order to determine gNO concentrations.

candida rugosa lipase = assay: Enzymatic generation of gNO with candida rugosa lipase, sodium nitrite and ester substrates; format: biochemical
Procedure: as §1

| Structure (SMILES) | substrate ranking for porcine liver esterase (gNO generation) (porcine liver esterase) | gNO production (porcine liver esterase; 0.5% triacetin in the assay) [ppmV] | gNO production (porcine liver esterase; 1% triacetin in the assay) | gNO production (porcine liver esterase; over the 6 hour experiment) [ppmV] | nitric oxide production (in words) (candida rugosa lipase; candida rugosa lipase tested against four substrates) | gNO production (candida rugosa lipase; candida rugosa lipase, sodium nitrite, one hour after the reaction was started) [ppmV] |
| --- | --- | --- | --- | --- | --- | --- |
| CCOC(C)=O [ethyl acetate] | best substrates | – | – | – | – | – |
| CC(=O)OCC(COC(C)=O)OC(C)=O [triacetin, glyceryl triacetate] | best substrates | ≤ 200 | up to 250 ppmV | > 350 | able to produce high amounts of nitric oxide | ≥ 200 |
